The text below walks through data of patent publication US8026245B2, “HIV replication inhibiting purine derivatives” (Janssen Pharmaceutica N.V., priority 2003, dated 2011).

Data set [1] can be described thus: Method B: cytotoxicity in mock-infected MT-4 cells engineered with GFP under a constitutional promotor. Format: cell-based. Particulars: human; Method B; mock-infected MT-4 cells with GFP, fluorescence reduced by 50%; read-out: pCC50 (−logCC50) (converted). The protocol:
(§1) In these cells, engineered with GFP (and an HIV-specific promotor), ongoing HIV-infection was measured fluorometrically. Cytotoxicity is measured in the same cells, but engineered with GFP under a constitutional promotor. The infection (or inhibition thereof) of HIV infected cells and the fluorescence of mock-infected cells is assessed by the fluorescent GFP signal generated by the two above mentioned cell lines.
(§2) The 50% cytotoxic concentration (CC50 in μM) was defined as the concentration of compound that reduced fluorescence of the mock-infected cells by 50%.

For data set [2], the system named is HIV-1. Particulars: for pSI (pEC50 − pCC50): Method B, selectivity index, ratio of CC50 to EC50.
Data set [3] concerns HIV-1. Put plainly: microbe, parasite or virus in culture. Particulars: Human immunodeficiency virus 1, MT4, read-out: pEC50 (−logEC50) (converted).
Data set [4] deals with HIV-1. Particulars: Method A; for pEC50 (−logEC50): MT-4 cells, HIV-infected, MTT, 50% protection; for pSI (pCC50-pEC50): selectivity index, ratio of CC50 to EC50. Here is the method:
An […] T4-cell line, MT-4, which was previously shown (Koyanagi et al., Int. J. Cancer, 36, 445-451, 1985) to be highly susceptible to and permissive for HIV infection, served as the target cell line. Inhibition of the HIV-induced cytopathic effect was used as the end point. The viability of both HIV- and mock-infected cells was assessed spectrophotometrically via the in situ reduction of 3-(4,5-dimethylthiazol-2-yl)-2,5-diphenyltetrazolium bromide (MTT). The 50% cytotoxic concentration (CC50 in M) was defined as the concentration of compound that reduced the absorbance of the mock-infected control sample by 50%. The percent protection achieved by the compound in HIV-infected cells was calculated by the following formula:
[formula] whereby (ODT)HIV is the optical density measured with a given concentration of the test compound in HIV-infected cells; (ODC)HIV is the optical density measured for the control untreated HIV-infected cells; (ODC)MOCK is the optical density measured for the control untreated mock-infected cells; all optical density values were determined at 540 nm. The dose achieving 50% protection according to the above formula was defined as the 50% effective concentration (EC50 in M). The ratio of CC50 to EC50 was defined as the selectivity index (SI). Method B

For data set [5], the system named is mock-infected MT-4 cells. Format: cell-based.
Procedure: An HIV-1 transformed T4-cell line, MT-4, which was previously shown (Koyanagi et al., Int. J. Cancer, 36, 445-451, 1985) to be highly susceptible to and permissive for HIV infection, served as the target cell line. Inhibition of the HIV-induced cytopathic effect was used as the end point. The viability of both HIV- and mock-infected cells was assessed spectrophotometrically via the in situ reduction of 3-(4,5-dimethylthiazol-2-yl)-2,5-diphenyltetrazolium bromide (MTT). The 50% cytotoxic concentration (CC50 in M) was defined as the concentration of compound that reduced the absorbance of the mock-infected control sample by 50%. The percent protection achieved by the compound in HIV-infected cells was calculated by the following formula:
Data set [6] relates to mock-infected MT-4 cells. The data set can be described thus: Method B: cytotoxicity in mock-infected MT-4 cells engineered with GFP under a constitutional promotor. Format: cell-based. Here is the method:
as §1, §2

Structures are written as SMILES. Where two headings read alike, the source gives them in different places.

`CCN(C)C(=O)/C=C/c1cc(C)c(Oc2nc(Nc3ccc(C#N)cc3)nc3ncn(Cc4ccc(OC)cc4)c23)c(C)c1` [Compound 1]: the CC50 in data set [1] is greater than 25100 nM. Moreover, the “pSI (pEC50 − pCC50)” value in the data set with HIV-1 [2] is listed as less than −3.8. Moreover, in the data set with HIV-1 [3], the EC50 is 3.98 nM.
In the same order, the values of `COc1ccc(Cn2cnc3c(Nc4c(C)cc(/C=C/C#N)cc4OC)nc(Nc4ccc(C#N)cc4)nc32)cc1` [Compound 2] are 5010 nM, −3.7 and 1 nM.
In the same order, the values of `COc1ccc(Cn2cnc3c(Nc4c(C)cc(/C=C/C#N)cc4C)nc(Nc4ccc(C#N)cc4)nc32)cc1` [Compound 3] are 1260 nM, −2.6 and 3.16 nM.
The matching figures for `COc1ccc(Cn2cnc3nc(Nc4ccc(C#N)cc4)nc(Oc4c(C)cc(/C=C/C#N)cc4C)c32)cc1` [Compound 4]: 10000 nM, −3.4 and 3.98 nM.
With `CCN(C)C(=O)/C=C/c1cc(C)c(Oc2nc(Nc3ccc(C#N)cc3)nc3nc[nH]c23)c(C)c1` [Compound 5], in data set [1], the CC50 was 5010 nM. The “pSI (pEC50 − pCC50)” value in the data set with HIV-1 [2] was −3.2. In the data set on HIV-1 [3], the EC50 is 3.16 nM.
The matching figures for `COc1cc(/C=C/C#N)cc(C)c1Nc1nc(Nc2ccc(C#N)cc2)nc2[nH]cnc12` [Compound 6]: 794 nM, −2.9 and 1 nM.
For the compound `Cc1cc(C)c(Oc2nc(Nc3ccc(C#N)cc3)nc3[nH]cnc23)c(C)c1` [Compound 23], in the data set with HIV-1 [4], the “pEC50 (−logEC50)” value is reported as 8.2 M and the “pSI (pCC50-pEC50)” value is listed as less than −3.6. Further, the “pCC50 (−logCC50)” value with mock-infected MT-4 cells [5] is given as less than 4.6.
The matching figures for `Cc1cc(C)c(Nc2nc(Nc3ccc(C#N)cc3)nc3[nH]cnc23)c(C)c1` [Compound 24]: 8.4 M, −4.1 and 4.3.
The matching figures for `COc1cc(C)c(Nc2nc(Nc3ccc(C#N)cc3)nc3[nH]cnc23)c(C)c1` [Compound 25]: 8.5 M, less than −4 and less than 4.5.
In the same order, the values of `Cc1cc(C#N)cc(C)c1Oc1nc(Nc2ccc(C#N)cc2)nc2[nH]cnc12` [Compound 28] are 9.0 M, less than −4.4 and less than 4.6.
As for `Cc1cc(C#N)cc(C)c1Nc1nc(Nc2ccc(C#N)cc2)nc2c1ncn2C` [Compound 46], the “pCC50 (−logCC50)” value with mock-infected MT-4 cells [6] was less than 4.6. Further, in the data set on HIV-1 [2], the “pEC50 (−logEC50)” value came to 9.4 and the “pSI (pEC50 − pCC50)” value is reported as greater than 4.8.
In the case of `CCn1cnc2c(Nc3c(C)cc(/C=C/C#N)cc3OC)nc(Nc3ccc(C#N)cc3)nc21` [Compound 48], the CC50 in data set [1] was greater than 25100 nM. For the same compound, the “pSI (pEC50 − pCC50)” value with HIV-1 [2] is greater than 4.6. Further, in the data set on HIV-1 [3], the EC50 is 0.631 nM.
`COc1cc(/C=C/C#N)cc(C)c1Nc1nc(Nc2ccc(C#N)cc2)nc2c1ncn2C(C)C` [Compound 49]: the “pCC50 (−logCC50)” value with mock-infected MT-4 cells [6] stood at 5.5. In the data set on HIV-1 [2], the “pEC50 (−logEC50)” value was determined as 9.0 and the “pSI (pEC50 − pCC50)” value stood at 3.5.
The matching figures for `COc1cc(/C=C/C#N)cc(C)c1Nc1nc(Nc2ccc(C#N)cc2)nc2c1ncn2CCO` [Compound 50]: 5.8, 9.2 and 3.4.
Turning to `COc1cc(/C=C/C#N)cc(C)c1Nc1nc(Nc2ccc(C#N)cc2)nc2c1ncn2CC#N` [Compound 52], in data set [1], the CC50 was 2000 nM. In the data set on HIV-1 [2], the “pSI (pEC50 − pCC50)” value was 3.6. In the data set with HIV-1 [3], the EC50 was 0.501 nM.
As for `COc1cc(/C=C/C#N)cc(Cl)c1Nc1nc(Nc2ccc(C#N)cc2)nc2[nH]cnc12` [Compound 53], the “pCC50 (−logCC50)” value in the data set with mock-infected MT-4 cells [6] is recorded as 6.1. Moreover, in the data set with HIV-1 [2], the “pEC50 (−logEC50)” value turned out to be 8.7 and the “pSI (pEC50 − pCC50)” value is given as 2.6.
The matching figures for `Cc1cc(/C=C/C#N)cc(Cl)c1Nc1nc(Nc2ccc(C#N)cc2)nc2[nH]cnc12` [Compound 54]: 5.5, 8.7 and 3.2.
For `N#C/C=C/c1cc(Cl)c(Nc2nc(Nc3ccc(C#N)cc3)nc3[nH]cnc23)c(Cl)c1` [Compound 55], the “pCC50 (−logCC50)” value in the data set with mock-infected MT-4 cells [6] is 5.6. In the data set with HIV-1 [2], the “pEC50 (−logEC50)” value came to 8.6 and the “pSI (pEC50 − pCC50)” value amounted to 3.0.
The matching figures for `CC(=CC#N)c1cc(C)c(Nc2nc(Nc3ccc(C#N)cc3)nc3[nH]cnc23)c(C)c1` [Compound 56]: less than 4.6, 8.4 and greater than 3.8.
On to `C/C(=C\C#N)c1cc(C)c(Nc2nc(Nc3ccc(C#N)cc3)nc3c2ncn3C)c(C)c1` [Compound 57], for which the CC50 in data set [1] was greater than 25100 nM. Moreover, the “pSI (pEC50 − pCC50)” value in the data set with HIV-1 [2] is given as greater than 4.4. The EC50 in the data set on HIV-1 [3] is 1 nM.
As for `CCC(=CC#N)c1cc(C)c(Nc2nc(Nc3ccc(C#N)cc3)nc3[nH]cnc23)c(C)c1` [Compound 58], the “pCC50 (−logCC50)” value in the data set on mock-infected MT-4 cells [6] worked out at 5.1. For the same compound, in the data set with HIV-1 [2], the “pEC50 (−logEC50)” value is on record as 8.3 and the “pSI (pEC50 − pCC50)” value amounted to 3.2.
The matching figures for `CCC(=CC#N)c1cc(C)c(Nc2nc(Nc3ccc(C#N)cc3)nc3c2ncn3C)c(C)c1` [Compound 59]: less than 4.6, 8.5 and greater than 3.9.
Consider `CCC(=CC#N)c1cc(C)c(Nc2nc(Nc3ccc(C#N)cc3)nc3c2ncn3CC#N)c(C)c1` [Compound 60], for which, in the data set with mock-infected MT-4 cells [6], the “pCC50 (−logCC50)” value is 5.0. In the data set with HIV-1 [2], the “pEC50 (−logEC50)” value came out at 8.6 and the “pSI (pEC50 − pCC50)” value amounted to 3.6.
The matching figures for `CC(C#N)=Cc1cc(C)c(Nc2nc(Nc3ccc(C#N)cc3)nc3[nH]cnc23)c(C)c1` [Compound 62]: less than 4.6, 8.6 and greater than 4.0.
The matching figures for `COc1cc(C=C(C)C#N)cc(C)c1Nc1nc(Nc2ccc(C#N)cc2)nc2[nH]cnc12` [Compound 63]: 5.1, 8.4 and 3.3.
The matching figures for `CC(C#N)=Cc1cc(C)c(Nc2nc(Nc3ccc(C#N)cc3)nc3c2ncn3C)c(C)c1` [Compound 64]: less than 4.6, 9.3 and greater than 4.7.
As to `C/C(C#N)=C(/C)c1cc(C)c(Nc2nc(Nc3ccc(C#N)cc3)nc3[nH]cnc23)c(C)c1` [Compound 65], in the data set with mock-infected MT-4 cells [6], the “pCC50 (−logCC50)” value came to 5.0. In the data set with HIV-1 [2], the “pEC50 (−logEC50)” value is recorded as 8.1 and the “pSI (pEC50 − pCC50)” value was determined as 3.1.
As to `COc1ccc(Cn2cnc3c(Nc4ccc(C#N)cc4)nc(Nc4c(C)cc(C#N)cc4C)nc32)cc1` [Compound 72], in data set [1], the CC50 was greater than 25100 nM. Further, the “pSI (pEC50 − pCC50)” value in the data set with HIV-1 [2] was greater than 3.9. In the data set with HIV-1 [3], the EC50 was 3.16 nM.
`COc1ccc(Cn2cnc3c(Nc4ccc(C#N)cc4)nc(Nc4c(C)cc(/C=C/C#N)cc4C)nc32)cc1` [Compound 73]: in data set [1], the CC50 was greater than 25100 nM. Further, the “pSI (pEC50 − pCC50)” value with HIV-1 [2] was greater than 3.7. In addition, the EC50 in the data set with HIV-1 [3] was 5.01 nM.
